Laboratory results: publication PMC12316034, “Tetrahydromagnolol induces autophagic cell death by targeting the m^6A reader protein YTHDF2 and enhances the efficacy of anti-PD-1 immunotherapy in pancreatic cancer cells” (Theranostics, 2025)

Molecular target: T1, YTHDF2 (YTH N6-methyladenosine RNA binding protein F2) (Homo sapiens, UniProt Q9Y5A9)
T1 construct: recombinant protein of YTHDF2 (NCBI: 51441)
T1 sequence (Q9Y5A9 2-579): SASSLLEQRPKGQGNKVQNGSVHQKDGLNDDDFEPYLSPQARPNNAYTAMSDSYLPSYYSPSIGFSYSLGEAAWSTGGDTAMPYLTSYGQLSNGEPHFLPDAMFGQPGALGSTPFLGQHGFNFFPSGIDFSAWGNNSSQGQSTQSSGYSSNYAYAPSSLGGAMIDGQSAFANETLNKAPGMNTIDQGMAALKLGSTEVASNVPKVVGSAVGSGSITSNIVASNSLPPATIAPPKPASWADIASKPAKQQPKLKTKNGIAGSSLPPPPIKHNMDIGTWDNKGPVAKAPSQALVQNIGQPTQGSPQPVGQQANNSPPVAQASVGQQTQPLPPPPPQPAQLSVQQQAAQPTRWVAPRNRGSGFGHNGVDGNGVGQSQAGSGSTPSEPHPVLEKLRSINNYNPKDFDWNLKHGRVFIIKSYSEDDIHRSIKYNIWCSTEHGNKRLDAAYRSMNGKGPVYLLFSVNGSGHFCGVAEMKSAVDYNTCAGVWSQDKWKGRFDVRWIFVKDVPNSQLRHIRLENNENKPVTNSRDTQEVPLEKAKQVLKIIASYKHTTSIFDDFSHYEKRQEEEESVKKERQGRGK
Experiment: SPR on immobilised recombinant YTHDF2; also ITC, THM-bead pull-down, CETSA, LC-MS/MS

Question: With `CCCc1ccc(O)c(-c2cc(CCC)ccc2O)c1` [Tetrahydromagnolol] as the compound, how does the Kd read?
Answer: Its Kd is 22 µM.
